Like-named read-outs stand apart in the source and are kept apart here. Bridge positions count the residues as written; N and C are the ends. Square brackets hold non-standard residues; d marks the D form. Peptide text beside a SMILES is read from it. * marks the point of attachment. Pen = CC(C)(S)[C@H](N)C(=O)O; dOrn = NCCC[C@@H](N)C(=O)O; Nonanoyl = CCCCCCCCC(=O)*; X2 = O=C(c1ccc(Cl)cc1Cl)*; Orn = NCCC[C@H](N)C(=O)O; Dap = NC[C@H](N)C(=O)O
How the values were obtained:
[1] = test system: Gram-negative strains of P. aeruginosa, A. baumannii, K. pneumoniae, and E. cloacae; assay type: cell-based
Protocol: (§1) MICs for laterocidine and its various analogues were determined by broth microdilution[49] for the following polymyxin-susceptible ATCC and clinical isolates: P. aeruginosa FADDI-PA022, FADDI-PA001, FADDI-PA025, FADDI-PA070, FADDI-PA060; A. baumannii FADDI-AB134, FADDI-AB034, FADDI-AB030, FADDI-AB174, FADDI-AB241; K. pneumoniae FADDI-KP032, FADDI-KP022, BM1, FADDI-KP065, FADDI-KP064, FADDI-KP003; and E. cloacae FADDI-EC001, FADDI-EC003, and FADDI-EC006. Experiments were performed with cation-adjusted Mueller–Hinton broth (CAMHB) in 96-well polystyrene microtiter plates. Wells were inoculated with 100 μL of bacterial suspension prepared in CAMHB (containing ∼10^6 CFU/mL) and 100 μL of CAMHB containing increasing concentrations of polymyxins (0–32 μg/mL). MIC measurements were performed in duplicate, with the MIC being the lowest concentration at which visible growth was inhibited following 18–20 h of incubation at 37 °C. Bacterial killing kinetics was investigated over 24 h as described previously.[50]

A. baumannii = assay type: cell-based
Protocol: as §1

[2] = compared with native laterocidine

SMILES | MICs against P. aeruginosa and A. baumannii (range) [1] [µg/mL] | fold increase in MIC (loss of activity) against all strains / all species [1, 2] | other results
CCCCCCCCC(=O)N[C@H](CO)C(=O)N[C@H](Cc1ccc(O)cc1)C(=O)N[C@H](Cc1c[nH]c2ccccc12)C(=O)N[C@H](CCCN)C(=O)N[C@@H](CCCN)C(=O)NCC(=O)N[C@H](CCCN)C(=O)N[C@@H](Cc1c[nH]c2ccccc12)C(=O)N[C@H](C(=O)N[C@H](C(=O)N[C@@H](CC(N)=O)C(=O)NCC(N)=O)[C@@H](C)CC)[C@@H](C)O [Peptide 21] (Nonanoyl-[dS][dY][dW][dOrn][Orn]G[dOrn]WTING-NH2) | – | – | fold increase in MIC against P. aeruginosa, K. pneumoniae, and E. cloacae [1, 2]: 1–2 fold
CCCCCCCCC(=O)N[C@H](CO)C(=O)N[C@H](Cc1ccc(O)cc1)C(=O)N[C@H](Cc1c[nH]c2ccccc12)C(=O)N[C@H](CCCN)C(=O)N[C@@H](CCCN)C(=O)NCC(=O)N[C@H](CCCN)C(=O)N[C@@H](Cc1c[nH]c2ccccc12)C(=O)N[C@@H]1C(=O)N[C@@H]([C@@H](C)CC)C(=O)N[C@@H](CC(N)=O)C(=O)NCC(=O)NCC(=O)N[C@@H]1C [Peptide 17] | > 32 | – | –
CCCCCCCCC(=O)N[C@H](CO)C(=O)N[C@H](Cc1ccc(O)cc1)C(=O)N[C@H](Cc1c[nH]c2ccccc12)C(=O)N[C@H](CCCN)C(=O)N[C@@H](CCCN)C(=O)NCC(=O)N[C@H](CCCN)C(=O)N[C@@H](Cc1c[nH]c2ccccc12)C(=O)N[C@H]1CNC(=O)CNC(=O)CNC(=O)[C@H](CC(N)=O)NC(=O)[C@H]([C@@H](C)CC)NC1=O [Peptide 16] (Nonanoyl-[dS][dY][dW][dOrn][Orn]G[dOrn]W[Dap]INGG; lactam 9-C) | > 32 | – | –
CC[C@H](C)[C@@H]1NC(=O)[C@@H](N)[C@@H](C)OC(=O)CNC(=O)CNC(=O)[C@H](CC(N)=O)NC1=O [Peptide 13] (HELM PEPTIDE1{[C[C@@H](O[*:3])[C@H](N)C(=O)[*:2]].I.N.G.G}$PEPTIDE1,PEPTIDE1,1:R3-5:R2$$$V2.0) | – | – | MICs against all tested strains (range) [1]: > 32 µg/mL
CCCCCCCCC(=O)N[C@H](CO)C(=O)N[C@H](Cc1ccc(O)cc1)C(=O)N[C@H](C)C(=O)N[C@H](CCCN)C(=O)N[C@@H](CCCN)C(=O)NCC(=O)N[C@H](CCCN)C(=O)N[C@@H](Cc1c[nH]c2ccccc12)C(=O)N[C@@H]1C(=O)N[C@@H]([C@@H](C)CC)C(=O)N[C@@H](CC(N)=O)C(=O)NCC(=O)NCC(=O)O[C@@H]1C [Peptide 33] (Nonanoyl-[dS][dY][dA][dOrn][Orn]G[dOrn]WTINGG; ester 9-C) | – | – | MICs against A. baumannii (range over strains) (A. baumannii; summary of Tables 1 and 2): > 32 µg/mL
CC[C@H](C)[C@@H]1NC(=O)[C@@H](NC(=O)[C@H](Cc2c[nH]c3ccccc23)NC(=O)[C@@H](CCCN)NC(=O)CNC(=O)[C@H](CCCN)NC(=O)[C@@H](CCCN)NC(=O)[C@@H](Cc2c[nH]c3ccccc23)NC(=O)[C@@H](Cc2ccc(O)cc2)NC(=O)[C@@H](CO)NC(=O)c2ccc(Cl)cc2Cl)[C@@H](C)OC(=O)CNC(=O)CNC(=O)[C@H](CC(N)=O)NC1=O [Peptide 12] (X2-[dS][dY][dW][dOrn][Orn]G[dOrn]WTINGG; ester 9-C) | – | – | fold increase in MIC (loss of activity) against A. baumannii (A. baumannii; [2]): 4–8 fold
CCCCCCCCC(=O)N[C@H](CO)C(=O)N[C@H](C)C(=O)N[C@H](Cc1c[nH]c2ccccc12)C(=O)N[C@H](CCCN)C(=O)N[C@@H](CCCN)C(=O)NCC(=O)N[C@H](CCCN)C(=O)N[C@@H](Cc1c[nH]c2ccccc12)C(=O)N[C@@H]1C(=O)N[C@@H]([C@@H](C)CC)C(=O)N[C@@H](CC(N)=O)C(=O)NCC(=O)NCC(=O)O[C@@H]1C [Peptide 34] (Nonanoyl-[dS][dA][dW][dOrn][Orn]G[dOrn]WTINGG; ester 9-C) | – | – | MICs against A. baumannii (range over strains) (A. baumannii): ≥ 32 µg/mL
CC[C@H](C)[C@@H]1NC(=O)[C@@H](NC(=O)[C@H](Cc2c[nH]c3ccccc23)NC(=O)[C@@H](CCCN)NC(=O)CNC(=O)[C@H](CCCN)NC(=O)[C@@H](CCCN)NC(=O)[C@@H](Cc2c[nH]c3ccccc23)NC(=O)[C@@H](Cc2ccc(O)cc2)NC(=O)[C@H](N)CO)[C@@H](C)OC(=O)CNC(=O)CNC(=O)[C@H](CC(N)=O)NC1=O [Peptide 14] (H-[dS][dY][dW][dOrn][Orn]G[dOrn]WTINGG; ester 9-C) | – | – | MICs against all tested strains (range) [1]: > 32 µg/mL
CCCCCCCCC(=O)N[C@H](CO)C(=O)N[C@H](Cc1ccc(O)cc1)C(=O)N[C@H](Cc1c[nH]c2ccccc12)C(=O)N[C@H](C)C(=O)N[C@@H](CCCN)C(=O)NCC(=O)N[C@H](CCCN)C(=O)N[C@@H](Cc1c[nH]c2ccccc12)C(=O)N[C@@H]1C(=O)N[C@@H]([C@@H](C)CC)C(=O)N[C@@H](CC(N)=O)C(=O)NCC(=O)NCC(=O)O[C@@H]1C [Peptide 32] (Nonanoyl-[dS][dY][dW][dA][Orn]G[dOrn]WTINGG; ester 9-C) | – | 2–8 fold | –
CCCCCCCCC(=O)N[C@H](CO)C(=O)N[C@H](Cc1ccc(O)cc1)C(=O)N[C@H](Cc1c[nH]c2ccccc12)C(=O)N[C@H](CCCN)C(=O)N[C@@H](CCCN)C(=O)NCC(=O)N[C@H](CCCN)C(=O)N[C@@H](Cc1c[nH]c2ccccc12)C(=O)N[C@H](C(=O)N[C@H](C(=O)N[C@@H](CC(N)=O)C(=O)NCC(=O)NCC(=O)O)[C@@H](C)CC)[C@@H](C)O [Peptide 19] (Nonanoyl-[dS][dY][dW][dOrn][Orn]G[dOrn]WTINGG-OH) | 8 to 32 | – | MICs against K. pneumoniae and E. cloacae (range) [1]: 4 to 32 µg/mL; fold increase in MIC for K. pneumoniae and E. cloacae [1, 2]: 2–4 fold; fold increase in MIC for P. aeruginosa and A. baumannii [1, 2]: 2–8 fold
CCCCCCCCC(=O)N[C@H](CO)C(=O)N[C@H](Cc1ccc(O)cc1)C(=O)N[C@H](Cc1c[nH]c2ccccc12)C(=O)N[C@H](CCCN)C(=O)N[C@@H](C)C(=O)NCC(=O)N[C@H](CCCN)C(=O)N[C@@H](Cc1c[nH]c2ccccc12)C(=O)N[C@@H]1C(=O)N[C@@H]([C@@H](C)CC)C(=O)N[C@@H](CC(N)=O)C(=O)NCC(=O)NCC(=O)O[C@@H]1C [Peptide 31] (Nonanoyl-[dS][dY][dW][dOrn]AG[dOrn]WTINGG; ester 9-C) | – | 2–8 fold | –
CCCCCCCCC(=O)N[C@H](CO)C(=O)N[C@H](Cc1ccc(O)cc1)C(=O)N[C@H](Cc1c[nH]c2ccccc12)C(=O)N[C@H](CCCN)C(=O)N[C@@H](CCCN)C(=O)NCC(=O)N[C@H](CCCN)C(=O)N[C@@H](Cc1c[nH]c2ccccc12)C(=O)N[C@@H]1C(=O)N[C@@H]([C@@H](C)CC)C(=O)N[C@@H](CC(N)=O)C(=O)N[C@@H](C)C(=O)NCC(=O)O[C@@H]1C [Peptide 25] (Nonanoyl-[dS][dY][dW][dOrn][Orn]G[dOrn]WTINAG; ester 9-C) | 2 to 16 | no more than 1 fold | –
CCCCCCCCC(=O)N[C@H](CO)C(=O)N[C@H](Cc1ccc(O)cc1)C(=O)N[C@H](Cc1c[nH]c2ccccc12)C(=O)N[C@H](CCCN)C(=O)N[C@@H](CCCN)C(=O)NCC(=O)N[C@H](CCCN)C(=O)N[C@@H](Cc1c[nH]c2ccccc12)C(=O)N[C@@H]1C(=O)N[C@@H]([C@@H](C)CC)C(=O)N[C@@H](C)C(=O)NCC(=O)NCC(=O)O[C@@H]1C [Peptide 26] (Nonanoyl-[dS][dY][dW][dOrn][Orn]G[dOrn]WTIAGG; ester 9-C) | 2 to 16 | no more than 1 fold | –
CCCCCCCCC(=O)N[C@H](CO)C(=O)N[C@H](Cc1ccc(O)cc1)C(=O)N[C@H](Cc1c[nH]c2ccccc12)C(=O)N[C@H](CCCN)C(=O)N[C@@H](CCCN)C(=O)NCC(=O)N[C@H](CCCN)C(=O)N[C@@H](Cc1c[nH]c2ccccc12)C(=O)N[C@@H]1C(=O)N[C@@H]([C@@H](C)CC)C(=O)N[C@@H](CC(N)=O)C(=O)NCC(=O)N[C@H](C(=O)O)CSSC1(C)C [Peptide 18] (Nonanoyl-[dS][dY][dW][dOrn][Orn]G[dOrn]W[Pen]INGC-OH; disulfide 9-13; C-terminus assumed) | – | 2–8 fold | –
CCCCCCCCC(=O)N[C@H](CO)C(=O)N[C@H](Cc1ccc(O)cc1)C(=O)N[C@H](Cc1c[nH]c2ccccc12)C(=O)N[C@H](CCCN)C(=O)N[C@@H](CCCN)C(=O)NCC(=O)N[C@H](CCCN)C(=O)N[C@@H](Cc1c[nH]c2ccccc12)C(=O)N[C@H](C(=O)N[C@H](C(=O)N[C@@H](CC(N)=O)C(=O)NCC(=O)NCC(N)=O)[C@@H](C)CC)[C@@H](C)O [Peptide 20] (Nonanoyl-[dS][dY][dW][dOrn][Orn]G[dOrn]WTINGG-NH2) | – | – | MICs against P. aeruginosa, K. pneumoniae, and E. cloacae (range) [1]: 4 to 32 µg/mL; fold increase in MIC against P. aeruginosa, K. pneumoniae, and E. cloacae [1, 2]: 2–4 fold
CCCCCCCCC(=O)N[C@H](CO)C(=O)N[C@H](Cc1ccc(O)cc1)C(=O)N[C@H](Cc1c[nH]c2ccccc12)C(=O)N[C@H](CCCN)C(=O)N[C@@H](CCCN)C(=O)NCC(=O)N[C@H](C)C(=O)N[C@@H](Cc1c[nH]c2ccccc12)C(=O)N[C@@H]1C(=O)N[C@@H]([C@@H](C)CC)C(=O)N[C@@H](CC(N)=O)C(=O)NCC(=O)NCC(=O)O[C@@H]1C [Peptide 29] (Nonanoyl-[dS][dY][dW][dOrn][Orn]G[dA]WTINGG; ester 9-C) | – | 2–4 fold | –

Reference: article PMC11428279, “Exploring Structure–Activity Relationships and Modes of Action of Laterocidine” (ACS Central Science, 2024)
